{"source": "patent US12233044B2", "about": "“Cannabidiol and chitosan compositions and methods of using the same” (priority 2017, dated 2025)", "key": {"[1]": {"system": "Triglyceride levels in the serum", "test": "Guinea pig induced dyslipidemia model, serum triglycerides", "assay_type": "in vivo", "method": "The blood cholesterol and triglycerides were examined in male guinea pigs, following an oral administration of the various formulations in correlation to the Controlled group.\nMeasurement of cholesterol, and Triglyceride levels in the serum were performed following a 7-10 day of exposure to the different diets.\nDay 3 all animals; Day 11 all animals; Day 24 all animals; Day 27 CBD, CNTL-fattening and CBD-chitosan group.\nThe blood collection tubes (BD 367955) were specialized for serum separation, containing a clot activator and a gel which separates the cell content (pellet) from the serum (supernatant) after centrifugation. Blood samples of ˜0.5 mL/animal were collected into the pre-marked tubes (study code, animal number and date). At all times blood was collected under anesthesia: Ketamine 20-40 mg/kg & Diazepam 1-2 mg/kg IM. Blood collection of all animals was performed via the periorbital eye venous plexus puncture.\nBlood samples were left at room temperature for at least 45 minutes, and subsequently centrifuged ([…], 1790 g, 10 min/RT) for serum separation and left in the specialized tubes with the gel partitioning the separated serum and cell content. The samples were transferred as such to AML.\nFollowing serum separation, the samples were kept at 2-8° C. until transferred to AML, for blood lipid profile analysis (cholesterol, LDL, HDL and Triglyceride levels). Sample transfer was via wet ice packed in Styrofoam boxes and transferred within 1-2 hours from blood separation."}, "[2]": {"test": "Guinea pig induced dyslipidemia model, body weight gain", "assay_type": "in vivo", "method": "The objective of this research was to examine the cholesterol blood levels of guinea pigs, fed ad libitum a high-level fat diet rich in lauric and myristic acids alone or in combination with various formulations.\n“Day 0” was initiation of the Study period, animals received regular guinea pig diet. Day 3 the animals were subjected to blood withdrawal and subsequently the first day of supplying the fattening diet. On day 11 chitosan diet was administered to the relevant group. On day 24 CBD diet and CBD chitosan diet were administered until day 27.\nDetermination of individual body weights of animals was conducted once weekly during the entire study."}}, "note": "Several values for one entry are separate records, joined by “and”; a condition that tells them apart may be missing. Identical values can stand only once."}
{"smiles": "C=C(C)[C@@H]1CCC(C)=C[C@H]1c1c(O)cc(CCCCC)cc1O", "note": "[CBD, Cannabidiol]", "values": [{"measurement": "Mean difference, TG delta 27 D to 10 D", "setting": "[1]; contrast CNTL - CBD CNTL", "value": 28.3}, {"measurement": "TG delta 27 D to 10 D by group second phase, Mean", "setting": "[1]; group mean", "value": "−33.0"}, {"measurement": "Triglycerides lowering effect (in words)", "setting": "[1]; guinea pig, in vivo", "value": "lower TG values"}, {"measurement": "Difference in triglycerides versus CNTL group", "setting": "[1]; significance", "value": "not significant"}, {"measurement": "Change in Weight by group, Mean", "setting": "[2]; change in weight during treatment, group mean, N 15", "value": 58.8}, {"measurement": "Mean difference, Change in Weight by group", "setting": "[2]; contrast CBD - CHIT", "value": 34.5}, {"measurement": "Mean difference, Change in Weight by group", "setting": "[2]; contrast CNTL - CBD", "value": 6.0}, {"measurement": "Mean difference, DELTA WEIGHT second phase", "setting": "[2]; contrast CNTL - CBD", "value": 2.8}, {"measurement": "DELTA WEIGHT, Second phase Group", "setting": "[2]; individual animals, second phase treatment", "value": "108.00 and 133.00 and 157.00 and 130.00"}, {"measurement": "DELTA WEIGHT by Second phase Group, Mean", "setting": "[2]; study initiation to after second phase treatment, group mean", "value": 132.0}]}
